{"source": "paper PMC7377474", "about": "“Preclinical characterization of CPL302-253, a selective inhibitor of PI3Kδ, as the candidate for the inhalatory treatment and prevention of Asthma” (PLoS ONE, 2020)", "assay_in_all_cases": "SafetyScan44", "type_in_all_cases": "cell-based", "key": {"HTR1B": {"molecular_target": "T1, HTR1B (Homo sapiens, UniProt P28222)", "T1 construct": "purchased DiscoverX (Eurofins) SafetyScan44", "T1 sequence (P28222 whole entry)": "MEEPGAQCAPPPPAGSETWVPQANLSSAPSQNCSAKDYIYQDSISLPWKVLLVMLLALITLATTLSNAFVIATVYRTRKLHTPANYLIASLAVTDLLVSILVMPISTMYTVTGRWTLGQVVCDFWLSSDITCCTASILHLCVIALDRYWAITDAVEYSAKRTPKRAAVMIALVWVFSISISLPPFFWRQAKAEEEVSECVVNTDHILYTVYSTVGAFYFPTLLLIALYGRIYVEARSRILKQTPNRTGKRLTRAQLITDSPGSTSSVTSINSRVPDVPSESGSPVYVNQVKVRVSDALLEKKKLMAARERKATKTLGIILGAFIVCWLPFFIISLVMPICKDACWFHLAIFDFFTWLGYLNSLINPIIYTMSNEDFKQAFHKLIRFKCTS", "settings": "10 μM", "protocol": "(§1) SafetyScan44 assay was performed by DiscoverX according to service provider’s protocol."}, "AChE": {"molecular_target": "T2, AChE (Homo sapiens, UniProt P22303)", "T2 construct": "purchased DiscoverX (Eurofins) SafetyScan44", "settings": "10 μM; Inhibitor mode", "protocol": "as §1"}, "HTR1A": {"molecular_target": "T3, HTR1A (Homo sapiens, UniProt P08908)", "T3 construct": "purchased DiscoverX (Eurofins) SafetyScan44", "T3 sequence (P08908 whole entry)": "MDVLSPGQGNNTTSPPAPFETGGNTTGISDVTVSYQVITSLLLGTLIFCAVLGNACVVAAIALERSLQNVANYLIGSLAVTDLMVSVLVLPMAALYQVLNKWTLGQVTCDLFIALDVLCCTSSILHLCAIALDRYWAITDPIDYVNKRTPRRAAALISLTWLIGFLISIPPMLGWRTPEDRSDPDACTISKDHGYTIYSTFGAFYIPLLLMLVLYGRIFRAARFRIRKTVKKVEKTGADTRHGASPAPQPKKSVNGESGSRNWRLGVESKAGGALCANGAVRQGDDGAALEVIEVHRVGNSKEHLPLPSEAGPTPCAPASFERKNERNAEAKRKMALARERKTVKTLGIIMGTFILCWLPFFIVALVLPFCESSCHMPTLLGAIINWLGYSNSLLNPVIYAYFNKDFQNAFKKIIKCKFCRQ", "settings": "10 μM", "protocol": "as §1"}, "INSR": {"molecular_target": "T4, INSR (Homo sapiens, UniProt P06213)", "T4 construct": "purchased DiscoverX (Eurofins) SafetyScan44", "settings": "10 μM; Inhibitor mode", "protocol": "as §1"}, "SERT": {"molecular_target": "T5, SERT (Homo sapiens, UniProt P31645)", "T5 construct": "purchased DiscoverX (Eurofins) SafetyScan44", "settings": "10 μM; Blocker mode", "protocol": "as §1"}, "COX2": {"molecular_target": "T6, COX2 (Homo sapiens, UniProt P35354)", "T6 construct": "purchased DiscoverX (Eurofins) SafetyScan44", "settings": "10 μM; Inhibitor mode", "protocol": "as §1"}, "ADRB1": {"molecular_target": "T7, ADRB1 (Homo sapiens, UniProt P08588)", "T7 construct": "purchased DiscoverX (Eurofins) SafetyScan44", "T7 sequence (P08588 whole entry)": "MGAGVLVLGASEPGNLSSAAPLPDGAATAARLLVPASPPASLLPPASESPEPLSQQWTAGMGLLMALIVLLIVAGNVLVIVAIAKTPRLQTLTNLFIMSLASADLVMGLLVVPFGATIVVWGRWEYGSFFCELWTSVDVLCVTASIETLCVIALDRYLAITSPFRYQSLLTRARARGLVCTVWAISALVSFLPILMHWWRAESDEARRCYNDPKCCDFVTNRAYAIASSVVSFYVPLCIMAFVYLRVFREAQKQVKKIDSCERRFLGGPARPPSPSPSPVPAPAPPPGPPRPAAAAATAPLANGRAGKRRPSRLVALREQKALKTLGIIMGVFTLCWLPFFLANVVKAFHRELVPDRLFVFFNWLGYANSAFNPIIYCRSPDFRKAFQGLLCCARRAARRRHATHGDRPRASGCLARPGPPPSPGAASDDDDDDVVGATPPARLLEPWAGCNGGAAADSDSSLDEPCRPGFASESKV", "settings": "10 μM", "protocol": "as §1"}, "CHRM2": {"molecular_target": "T8, CHRM2 (Homo sapiens, UniProt P08172)", "T8 construct": "purchased DiscoverX (Eurofins) SafetyScan44", "T8 sequence (P08172 whole entry)": "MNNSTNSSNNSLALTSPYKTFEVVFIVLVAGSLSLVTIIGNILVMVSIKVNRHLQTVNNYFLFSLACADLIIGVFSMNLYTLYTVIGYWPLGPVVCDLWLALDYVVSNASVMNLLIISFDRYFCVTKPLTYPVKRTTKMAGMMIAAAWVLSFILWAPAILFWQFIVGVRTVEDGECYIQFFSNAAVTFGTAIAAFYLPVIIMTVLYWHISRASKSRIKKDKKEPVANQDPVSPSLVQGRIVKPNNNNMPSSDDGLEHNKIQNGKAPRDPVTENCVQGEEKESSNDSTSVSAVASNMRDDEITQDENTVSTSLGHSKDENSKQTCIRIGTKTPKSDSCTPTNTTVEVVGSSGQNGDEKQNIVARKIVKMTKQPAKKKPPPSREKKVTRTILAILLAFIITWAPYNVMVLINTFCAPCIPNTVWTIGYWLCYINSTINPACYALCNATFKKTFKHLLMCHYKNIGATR", "settings": "10 μM", "protocol": "as §1"}, "HRH1": {"molecular_target": "T9, HRH1 (Homo sapiens, UniProt P35367)", "T9 construct": "purchased DiscoverX (Eurofins) SafetyScan44", "T9 sequence (P35367 whole entry)": "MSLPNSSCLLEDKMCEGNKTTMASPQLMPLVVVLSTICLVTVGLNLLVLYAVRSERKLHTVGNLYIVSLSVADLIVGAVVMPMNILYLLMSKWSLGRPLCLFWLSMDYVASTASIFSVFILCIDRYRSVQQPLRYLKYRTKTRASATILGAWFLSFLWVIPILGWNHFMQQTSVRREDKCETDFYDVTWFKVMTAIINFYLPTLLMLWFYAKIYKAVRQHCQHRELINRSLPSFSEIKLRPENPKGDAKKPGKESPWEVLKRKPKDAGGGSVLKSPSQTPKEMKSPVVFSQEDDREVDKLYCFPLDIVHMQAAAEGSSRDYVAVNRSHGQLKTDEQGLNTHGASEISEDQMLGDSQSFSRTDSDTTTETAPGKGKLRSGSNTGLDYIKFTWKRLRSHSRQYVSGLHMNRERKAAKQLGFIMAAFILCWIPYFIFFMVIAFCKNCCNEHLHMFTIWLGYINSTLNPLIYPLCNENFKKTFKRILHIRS", "settings": "10 μM", "protocol": "as §1"}, "ADRA2A": {"molecular_target": "T10, ADRA2A (Homo sapiens, UniProt P08913)", "T10 construct": "purchased DiscoverX (Eurofins) SafetyScan44", "T10 sequence (P08913 whole entry)": "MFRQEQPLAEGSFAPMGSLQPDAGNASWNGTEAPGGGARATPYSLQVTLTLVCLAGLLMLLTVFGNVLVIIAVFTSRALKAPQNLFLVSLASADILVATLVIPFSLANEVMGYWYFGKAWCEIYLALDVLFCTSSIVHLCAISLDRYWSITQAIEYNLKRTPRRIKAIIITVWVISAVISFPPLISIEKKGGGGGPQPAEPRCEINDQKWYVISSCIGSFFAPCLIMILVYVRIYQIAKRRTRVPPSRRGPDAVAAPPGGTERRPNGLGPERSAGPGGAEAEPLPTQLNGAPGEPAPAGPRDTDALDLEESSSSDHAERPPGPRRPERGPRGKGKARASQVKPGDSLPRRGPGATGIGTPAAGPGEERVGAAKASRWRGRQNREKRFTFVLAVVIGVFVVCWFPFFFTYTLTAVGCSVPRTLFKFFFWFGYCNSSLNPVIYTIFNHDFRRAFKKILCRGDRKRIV", "settings": "10 μM", "protocol": "as §1"}, "GABAA": {"tested_on": "GABAA", "settings": "10 μM", "protocol": "as §1"}, "HTR2A": {"molecular_target": "T11, HTR2A (Homo sapiens, UniProt P28223)", "T11 construct": "purchased DiscoverX (Eurofins) SafetyScan44", "T11 sequence (P28223 whole entry)": "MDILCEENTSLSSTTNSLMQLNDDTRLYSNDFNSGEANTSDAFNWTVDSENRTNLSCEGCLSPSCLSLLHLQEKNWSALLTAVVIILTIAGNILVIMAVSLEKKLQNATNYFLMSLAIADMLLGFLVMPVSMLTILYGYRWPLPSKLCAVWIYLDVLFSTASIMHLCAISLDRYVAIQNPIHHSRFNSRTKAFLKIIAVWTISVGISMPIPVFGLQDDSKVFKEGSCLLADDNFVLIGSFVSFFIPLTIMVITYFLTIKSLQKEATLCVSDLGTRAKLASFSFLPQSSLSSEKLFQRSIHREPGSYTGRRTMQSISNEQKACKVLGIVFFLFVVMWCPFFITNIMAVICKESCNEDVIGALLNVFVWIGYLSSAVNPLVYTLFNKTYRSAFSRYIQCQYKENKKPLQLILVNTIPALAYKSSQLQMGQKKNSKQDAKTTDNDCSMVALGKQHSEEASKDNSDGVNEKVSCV", "settings": "10 μM", "protocol": "as §1"}, "MAOA": {"molecular_target": "T12, MAOA (Homo sapiens, UniProt P21397)", "T12 construct": "purchased DiscoverX (Eurofins) SafetyScan44", "settings": "10 μM; Inhibitor mode", "protocol": "as §1"}, "DRD2S": {"molecular_target": "T13, DRD2S (Homo sapiens, UniProt P14416)", "T13 construct": "purchased DiscoverX (Eurofins) SafetyScan44", "T13 sequence (P14416 1-414 isoform P14416-2)": "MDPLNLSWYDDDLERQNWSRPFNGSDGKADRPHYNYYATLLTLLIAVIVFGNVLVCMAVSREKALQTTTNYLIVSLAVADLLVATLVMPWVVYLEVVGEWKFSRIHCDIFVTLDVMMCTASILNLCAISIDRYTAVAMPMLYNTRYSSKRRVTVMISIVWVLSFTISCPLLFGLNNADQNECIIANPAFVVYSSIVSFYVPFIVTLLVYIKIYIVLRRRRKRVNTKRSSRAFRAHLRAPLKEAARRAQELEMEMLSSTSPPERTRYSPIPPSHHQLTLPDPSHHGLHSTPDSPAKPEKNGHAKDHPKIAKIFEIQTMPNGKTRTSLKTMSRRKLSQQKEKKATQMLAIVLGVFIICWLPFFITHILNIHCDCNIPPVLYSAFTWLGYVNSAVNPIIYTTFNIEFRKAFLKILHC", "settings": "10 μM", "protocol": "as §1"}, "ADORA2A": {"molecular_target": "T14, ADORA2A (Homo sapiens, UniProt P29274)", "T14 construct": "purchased DiscoverX (Eurofins) SafetyScan44", "T14 sequence (P29274 whole entry)": "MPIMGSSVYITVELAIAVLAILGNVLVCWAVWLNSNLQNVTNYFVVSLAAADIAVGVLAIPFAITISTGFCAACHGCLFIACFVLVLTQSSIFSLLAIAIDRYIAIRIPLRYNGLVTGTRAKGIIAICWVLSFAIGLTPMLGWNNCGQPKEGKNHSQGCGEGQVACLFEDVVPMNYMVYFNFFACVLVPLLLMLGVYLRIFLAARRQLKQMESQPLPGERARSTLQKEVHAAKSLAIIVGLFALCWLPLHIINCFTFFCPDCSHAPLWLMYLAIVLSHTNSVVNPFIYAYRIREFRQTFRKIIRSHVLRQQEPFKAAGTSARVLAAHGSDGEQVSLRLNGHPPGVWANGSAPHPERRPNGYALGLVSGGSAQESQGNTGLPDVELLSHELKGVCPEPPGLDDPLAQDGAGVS", "settings": "10 μM", "protocol": "as §1"}, "LCK": {"molecular_target": "T15, LCK (Homo sapiens, UniProt P06239)", "T15 construct": "purchased DiscoverX (Eurofins) SafetyScan44", "settings": "10 μM; Inhibitor mode", "protocol": "as §1"}, "GR": {"molecular_target": "T16, GR (Homo sapiens, UniProt P04150)", "T16 construct": "purchased DiscoverX (Eurofins) SafetyScan44", "settings": "10 μM", "protocol": "as §1"}, "OPRD1": {"molecular_target": "T17, OPRD1 (Homo sapiens, UniProt P41143)", "T17 construct": "purchased DiscoverX (Eurofins) SafetyScan44", "T17 sequence (P41143 whole entry)": "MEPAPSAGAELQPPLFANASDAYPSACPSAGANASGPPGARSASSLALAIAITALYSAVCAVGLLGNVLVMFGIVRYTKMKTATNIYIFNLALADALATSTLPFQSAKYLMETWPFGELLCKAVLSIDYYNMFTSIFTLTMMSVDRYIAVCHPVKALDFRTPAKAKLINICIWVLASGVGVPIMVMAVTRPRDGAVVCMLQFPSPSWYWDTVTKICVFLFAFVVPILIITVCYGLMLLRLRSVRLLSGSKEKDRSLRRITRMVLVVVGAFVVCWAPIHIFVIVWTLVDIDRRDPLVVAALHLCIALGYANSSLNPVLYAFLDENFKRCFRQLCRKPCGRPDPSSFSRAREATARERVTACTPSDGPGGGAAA", "settings": "10 μM", "protocol": "as §1"}, "PDE4D2": {"molecular_target": "T18, PDE4D2 (Homo sapiens, UniProt Q08499)", "T18 construct": "purchased DiscoverX (Eurofins) SafetyScan44", "settings": "10 μM; Inhibitor mode", "protocol": "as §1"}, "CHRM1": {"molecular_target": "T19, CHRM1 (Homo sapiens, UniProt P11229)", "T19 construct": "purchased DiscoverX (Eurofins) SafetyScan44", "settings": "10 μM", "protocol": "as §1"}, "HTR3A": {"molecular_target": "T20, HTR3A (Homo sapiens, UniProt P46098)", "T20 construct": "purchased DiscoverX (Eurofins) SafetyScan44", "T20 sequence (P46098 24-478)": "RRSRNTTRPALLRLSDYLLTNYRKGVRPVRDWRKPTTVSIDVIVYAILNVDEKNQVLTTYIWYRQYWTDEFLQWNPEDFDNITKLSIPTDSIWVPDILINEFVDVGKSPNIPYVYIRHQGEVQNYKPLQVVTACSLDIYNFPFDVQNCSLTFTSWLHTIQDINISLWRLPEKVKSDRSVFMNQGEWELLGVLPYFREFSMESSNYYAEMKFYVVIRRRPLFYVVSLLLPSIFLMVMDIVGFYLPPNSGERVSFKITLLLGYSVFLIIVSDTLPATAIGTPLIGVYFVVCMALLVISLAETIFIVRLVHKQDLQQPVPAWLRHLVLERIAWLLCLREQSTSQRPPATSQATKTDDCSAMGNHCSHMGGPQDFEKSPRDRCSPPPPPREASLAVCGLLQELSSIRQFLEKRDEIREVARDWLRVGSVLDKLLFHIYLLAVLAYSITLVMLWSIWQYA", "settings": "10 μM", "protocol": "as §1"}, "CAV1.2": {"molecular_target": "T21, CAV1.2 (Homo sapiens, UniProt Q13936)", "T21 construct": "purchased DiscoverX (Eurofins) SafetyScan44", "settings": "10 μM; Blocker mode", "protocol": "as §1"}, "VEGFR2": {"molecular_target": "T22, VEGFR2 (Homo sapiens, UniProt P35968)", "T22 construct": "purchased DiscoverX (Eurofins) SafetyScan44", "settings": "10 μM; Inhibitor mode", "protocol": "as §1"}}, "data": [{"compound": "CC(C)(C)N1CCN(Cc2cc3nc(-c4cncc5[nH]ccc45)cc(N4CCOCC4)n3n2)CC1", "note": "[CPL302-253]", "values": [{"measurement": "% Response HTR1B Agonist", "setting": "HTR1B; Agonist mode", "value": 8.0, "unit": "%"}, {"measurement": "% Response HTR1B Antagonist", "setting": "HTR1B; Antagonist mode", "value": 0.1, "unit": "%"}, {"measurement": "% Response AChE Inhibitor", "setting": "AChE", "value": 27.8, "unit": "%"}, {"measurement": "% Response HTR1A Agonist", "setting": "HTR1A; Agonist mode", "value": 5.6, "unit": "%"}, {"measurement": "% Response HTR1A Antagonist", "setting": "HTR1A; Antagonist mode", "value": -4.8, "unit": "%"}, {"measurement": "% Response INSR Inhibitor", "setting": "INSR", "value": -6.5, "unit": "%"}, {"measurement": "% Response SERT Blocker", "setting": "SERT", "value": 21.5, "unit": "%"}, {"measurement": "% Response COX2 Inhibitor", "setting": "COX2", "value": 11.9, "unit": "%"}, {"measurement": "% Response ADRB1 Agonist", "setting": "ADRB1; Agonist mode", "value": 0.5, "unit": "%"}, {"measurement": "% Response ADRB1 Antagonist", "setting": "ADRB1; Antagonist mode", "value": 26.6, "unit": "%"}, {"measurement": "% Response CHRM2 Agonist", "setting": "CHRM2; Agonist mode", "value": 8.2, "unit": "%"}, {"measurement": "% Response CHRM2 Antagonist", "setting": "CHRM2; Antagonist mode", "value": 35.2, "unit": "%"}, {"measurement": "% Response HRH1 Agonist", "setting": "HRH1; Agonist mode", "value": -0.2, "unit": "%"}, {"measurement": "% Response HRH1 Antagonist", "setting": "HRH1; Antagonist mode", "value": 7.2, "unit": "%"}, {"measurement": "% Response ADRA2A Agonist", "setting": "ADRA2A; Agonist mode", "value": 0.4, "unit": "%"}, {"measurement": "% Response ADRA2A Antagonist", "setting": "ADRA2A; Antagonist mode", "value": -0.7, "unit": "%"}, {"measurement": "% Response GABAA Blocker", "setting": "GABAA; Blocker mode", "value": 1.4, "unit": "%"}, {"measurement": "% Response GABAA Opener", "setting": "GABAA; Opener mode", "value": -2.3, "unit": "%"}, {"measurement": "% Response HTR2A Agonist", "setting": "HTR2A; Agonist mode", "value": -1.5, "unit": "%"}, {"measurement": "% Response HTR2A Antagonist", "setting": "HTR2A; Antagonist mode", "value": 11.5, "unit": "%"}, {"measurement": "% Response MAOA Inhibitor", "setting": "MAOA", "value": 8.5, "unit": "%"}, {"measurement": "% Response DRD2S Agonist", "setting": "DRD2S; Agonist mode", "value": -4.5, "unit": "%"}, {"measurement": "% Response DRD2S Antagonist", "setting": "DRD2S; Antagonist mode", "value": -1.1, "unit": "%"}, {"measurement": "% Response ADORA2A Agonist", "setting": "ADORA2A; Agonist mode", "value": -0.8, "unit": "%"}, {"measurement": "% Response ADORA2A Antagonist", "setting": "ADORA2A; Antagonist mode", "value": 11.7, "unit": "%"}, {"measurement": "% Response LCK Inhibitor", "setting": "LCK", "value": 16.3, "unit": "%"}, {"measurement": "% Response GR Agonist", "setting": "GR; Agonist mode", "value": 0.0, "unit": "%"}, {"measurement": "% Response GR Antagonist", "setting": "GR; Antagonist mode", "value": -5.6, "unit": "%"}, {"measurement": "% Response OPRD1 Agonist", "setting": "OPRD1; Agonist mode", "value": -6.4, "unit": "%"}, {"measurement": "% Response OPRD1 Antagonist", "setting": "OPRD1; Antagonist mode", "value": 0.4, "unit": "%"}, {"measurement": "% Response PDE4D2 Inhibitor", "setting": "PDE4D2", "value": 2.0, "unit": "%"}, {"measurement": "% Response CHRM1 Agonist", "setting": "CHRM1; Agonist mode", "value": 1.2, "unit": "%"}, {"measurement": "% Response CHRM1 Antagonist", "setting": "CHRM1; Antagonist mode", "value": 48.1, "unit": "%"}, {"measurement": "% Response HTR3A Blocker", "setting": "HTR3A; Blocker mode", "value": 19.5, "unit": "%"}, {"measurement": "% Response HTR3A Opener", "setting": "HTR3A; Opener mode", "value": -0.8, "unit": "%"}, {"measurement": "% Response CAV1.2 Blocker", "setting": "CAV1.2", "value": -1.1, "unit": "%"}, {"measurement": "% Response VEGFR2 Inhibitor", "setting": "VEGFR2", "value": 30.7, "unit": "%"}]}]}
